Structures can show the parent of a compound that is named as a salt. Where two headings read alike, the source gives them in different places.
Test system: durch 310 ng Angiotensin I ausgelösten Pressorreaktion
Experiment: Inhibition of the angiotensin I induced pressor response after intraduodenal administration to the anaesthetised rat
Type: in vivo, Ratte
Settings: dose giving 50 % inhibition of the pressor response to 310 ng angiotensin I, 30 min after application
Protocol: Intraduodenale Gabe an der narkotisierten Ratte, 50 % Hemmung der durch 310 ng Angiotensin I ausgelösten Pressorreaktion 30 min. nach Applikation in der Dosis .............- ED50: […]

| Compound | ED50 [mg/kg] | ED50 (30 min) [mg/kg] | other results |
| --- | --- | --- | --- |
| CCOC(=O)[C@H](CC(=O)c1ccccc1)N[C@@H](C)C(=O)N1C2CCC(C2)[C@H]1C(=O)O (stereo partly drawn) [N-(1-S-Carbethoxy-3-oxo-3-phenyl-propyl)-S-alanyl-2-azabicyclo [2.2.1] heptan-3-S-exo-carbonsäure] | 0.9 | – | – |
| CCOC(=O)[C@H](CC(=O)c1ccccc1)N[C@@H](C)C(=O)N1[C@H]2CC[C@H](C2)[C@H]1C(=O)O [N-(1-S-Carbethoxy-3-phenyl-3-oxo-propyl)-S-alanyl-2-azabicyclo [2.2.1] heptan-3-S-endo-carbonsäure. Hydrochlorid] | – | – | ED50 (0.5 h, read-out: ED50): 0.75 mg/kg |
| C[C@H](N[C@@H](CCc1ccccc1)C(=O)O)C(=O)N1C2CCC(C2)[C@H]1C(=O)O (stereo partly drawn) [n=1, X=C6H5, Y=H, Z=H, R^1=H, R^2=CH3, R=H, endo] [N-(1-S-Carboxy-3-phenyl-propyl)-S-alanyl-2-azabicyclo , [2.2.1] heptan-3-S-endo-carbonsäure] | – | 1.6 | – |
| C[C@H](N[C@@H](CCc1ccccc1)C(=O)O)C(=O)N1C2CCC(C2)[C@H]1C(=O)O (stereo partly drawn) [n=1, X=C6H5, Y=H, Z=H, R^1=H, R^2=CH3, R=H, exo] [N-(1-S-Carboxy-3-phenyl-propyl)-S-alanyl-2-azabicyclo [2.2.1 J heptan-3-S-exo-carbonsäure] | – | 1.8 | – |
| N-(1-S-Carbethoxy-3-phenyl-propyl)-S-alanyl-2-azabicyclo [2.2.1 ] heptan-3-S-exo-carbonsäure Hydrochlorid | 0.7 | – | – |
| N-(1-S-Carbethoxy-3-phenyl-propyl)-S-alanyl-2-azabicyclo [ 2.2.1] heptan-3-S-endo-carbonsäure-Hydrochlorid | 0.5 | – | – |
